Legend:
human GRα protein = biological target: T1, human GRα protein (Homo sapiens, UniProt P04150); assay: Binding inhibitory assay (displacement of 3H-dexamethasone from the cytoplasm fraction of baculovirus-infected insect cells); details: 100 nM test compound; 3H-Dex; NSB with 10 μM dexamethasone; read-out: Binding Inhibitory ratio (%) of 100 nM of test compound
T1 construct: made in house; host or cells: insect cells infected with baculovirus; cytoplasm fraction used
T1 sequence (P04150 1-777): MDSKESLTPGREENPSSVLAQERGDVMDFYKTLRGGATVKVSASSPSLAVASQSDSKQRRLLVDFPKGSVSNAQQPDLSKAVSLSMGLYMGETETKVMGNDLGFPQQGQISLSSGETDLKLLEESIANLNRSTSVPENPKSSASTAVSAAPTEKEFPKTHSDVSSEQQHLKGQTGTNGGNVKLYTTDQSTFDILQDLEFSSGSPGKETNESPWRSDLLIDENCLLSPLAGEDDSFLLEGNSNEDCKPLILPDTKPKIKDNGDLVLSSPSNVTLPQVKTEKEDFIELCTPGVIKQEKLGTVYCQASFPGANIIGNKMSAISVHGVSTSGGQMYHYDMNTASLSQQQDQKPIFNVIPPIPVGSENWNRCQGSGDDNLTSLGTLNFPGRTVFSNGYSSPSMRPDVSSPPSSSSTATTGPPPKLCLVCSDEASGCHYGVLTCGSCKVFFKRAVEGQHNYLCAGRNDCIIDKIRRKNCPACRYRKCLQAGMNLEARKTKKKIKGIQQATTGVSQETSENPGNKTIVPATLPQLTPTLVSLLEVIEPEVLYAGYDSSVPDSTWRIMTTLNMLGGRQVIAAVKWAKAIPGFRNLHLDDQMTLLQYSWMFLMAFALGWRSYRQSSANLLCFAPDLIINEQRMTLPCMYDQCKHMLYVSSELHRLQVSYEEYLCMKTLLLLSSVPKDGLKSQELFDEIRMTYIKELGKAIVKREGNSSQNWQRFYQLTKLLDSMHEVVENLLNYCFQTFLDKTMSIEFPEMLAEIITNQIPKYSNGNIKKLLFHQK
Experimental: Insect cells, which had been infected with baculovirus for expressing human GRα protein, were suspended in an approximately equal volume of a binding buffer (10 mM Tris-Cl, 1.5 mM EDTA, 10% glycerol, 5 mM DTT, 20 mM sodium molybdate, pH 7.6). The mixture was rapidly frozen with liquid nitrogen, and then melted at room temperature. This cycle was repeated totally twice in order to break the cell membrane. The mixture was ultracentrifuged under 100,000 g at 4° C. for one hour to give the supernatant, which was the cytoplasm fraction containing human GRα protein.
A polypropylene 96-well plate (manufactured by Costar Corporation, etc.) was placed on ice, and DMSO or a test compound (each 1 μl) was put into each well. A 10 nM ^3H-Dex solution (50 μl; tritiated dexamethasone; manufactured by Amersham) in the binding buffer, and a GR protein solution, i.e., a solution by diluting the above cytoplasm fraction with the binding buffer (50 μl) were added to each well, and the plate was lightly shaken with a plate mixer, and then left to stand at 4° C. for 16 to 20 hours (the final concentration of DMSO: 1%).
A 5% solution of dextran-coated active carbon (manufactured by Sigma) suspended in the binding buffer (50 μl) was put into each well, and the plate was lightly shaken with a plate mixer for 30 seconds. Then, the plate was centrifuged at 2500 rpm at 4° C. for 5 minutes, and the ^3H count in the supernatant (50 μl) was measured by a TopCount (manufactured by Perkin-Elmer Corporation). Each test compound was tested twice.
The binding activity was calculated as follows. The mean ^3H count in the presence of dexamethason (Dex) 10 μM was considered as NSB (non-specific binding), and the binding inhibitory ratio in each well was calculated by the following equation.
Binding Inhibitory Ratio (%)=100×{1−(cpm value of each well−NSB)/(mean cpm value of DMSO-well−NSB)}
(cpm means count per minute)
The mean binding inhibitory ratio of each well was calculated by the above equation to give a binding inhibitory ratio of each test compound.

H4-III-E cells = assay: TAT (tyrosine aminotransferase) assay; assay type: cell-based; details: for Agonistic activity of 10 μM test compound / activation at 10 µM: 10 μM test compound alone, relative to maximum Dex-induced TAT activity (100%); for Antagonistic activity of 10 μM test compound: 10 μM test compound together with 0.005 μM dexamethasone, inhibitory ratio against TAT activity increase by Dex; for activation at 10 µM: read-out: Agonistic activity of 10 μM test compound
Experimental: H4-III-E cells, which had been continuously cultured in α-MEM medium A (supplemented with 10% inactivated FBS, 50 μM 2-mercapto-ethanol), were suspended in α-MEM medium A or α-MEM medium B (supplemented with 10% inactivated FBS, 50 μM 2-mercapto-ethanol, but without phenol red), and the cell suspension was seeded to a 96-well plate in an amount of 2×10^4 cells/100 μl/well, and the cells were cultured overnight. The supernatant in the medium was removed, and a test compound (100 μl, diluted with α-MEM medium A or α-MEM medium B) was added, and the cells were further cultured overnight. In order to measure the agonistic activity, a test compound was added alone, while in order to measure the antagonistic activity, a test compound was added simultaneously together with 0.005 μM dexamethasone and evaluated the extent of the inhibitory effect of said test compound against the TAT activity-inducing activity by dexamethasone.
The culture supernatant in the plate was removed by suction, and a cell lysate (20 μL; 1% NP-40, 0.2% Triton X-100, 0.25% DOC, 0.1% SDS, 1 mM EGTA, 150 mM NaCl, Tris (pH7.4), Protease inhibitor cocktail [2.5 mg/ml aprotinin, 2.5 mg/ml leupeptin, 2.5 mg/ml soybean trypsin inhibitor]) was added, and further thereto was added a TAT reaction reagent (150 μL; 10 N KOH, 0.125 M KH2PO4, 0.5 M α-ketoglutarate, 5 mM Pyridoxal-5′ phosphate, L-tyrosine), and the mixture was reacted at 37° C. for 15 minutes. Further, a 10N KOH (20 μL) was added thereto, and the mixture was reacted at 37° C. for 30 minutes, and the absorbance at 331 nm was measured by a microplate reader (SPECTRA MAX 250).
From the mean absorbance in the wells to which a test compound was added, the mean absorbance in the wells to which a compound and a TAT reaction solution were not added was subtracted.
Agonistic activity (%)=100×[(absorbance of the drug-treated group)−(absorbance of the group without TAT reaction reagent)]/[(absorbance of Dex-treated group)−(absorbance of the group without TAT reaction reagent)]
On the other hand, the antagonistic activity was calculated as follows.
Antagonistic activity (%)=Inhibitory ratio (%) against TAT activity increase by Dex=100−100×[(absorbance of the drug-treated group)−(absorbance of the group without a drug)]/[(absorbance of Dex-treated group)−(absorbance of the group without a drug)]
With regard to the agonistic activity and the antagonistic activity, the results of 10% or more were expressed as O, while the results of less than 10% were expressed as X.

inhibition at 0.1 µM (human GRα protein) [%] | Structure (SMILES) | Agonistic activity of 10 μM test compound (H4-III-E cells) | Antagonistic activity of 10 μM test compound (H4-III-E cells) | activation at 10 µM (H4-III-E cells) [%]
97 | O=[N+]([O-])c1ccc2c(C(O)(CN3CCS(=O)(=O)CC3)C(F)(F)F)cn(Cc3ccccc3)c2c1 (stereo not drawn) [Example 120, 2-(1-Benzyl-6-nitro-1H-indol-3-yl)-3-(1,1-dioxidothiomorpholin-4-yl)-1,1,1-trifluoropropan-2-ol] | ◯ | ◯ | –
101 | CC(C)(C)OC(=O)N1CCN(CC(O)(c2cn(Cc3ccccc3)c3cc([N+](=O)[O-])ccc23)C(F)(F)F)CC1 (stereo not drawn) [Example 100, tert-Butyl 4-[2-(1-benzyl-6-nitro-1H-indol-3-yl)-3,3,3-trifluoro-2-hydroxypropyl]-piperazine-1-carboxylate] | ◯ | ◯ | –
91 | COC(CN1CCC(C(=O)c2ccccc2)CC1)(c1cn(Cc2ccccc2)c2cc([N+](=O)[O-])ccc12)C(F)(F)F (stereo not drawn) [Example 153, {1-[2-(1-Benzyl-6-nitro-1H-indol-3-yl)-3,3,3-trifluoro-2-methoxypropyl]piperidin-4-yl}(phenyl)methanone] | ◯ | ◯ | –
60 | O=[N+]([O-])c1ccc2c(C(O)(CN3CCC(O)(Cc4ccccc4)CC3)C(F)(F)F)cn(Cc3ccccc3)c2c1 (stereo not drawn) [Example 76, 4-Benzyl-1-[2-(1-benzyl-6-nitro-1H-indol-3-yl)-3,3,3-trifluoro-2-hydroxypropyl]-piperidin-4-ol] | – | ◯ | < 10
97 | O=[N+]([O-])c1ccc2c(C(O)(CN3CCC(S(=O)(=O)c4ccccc4)CC3)C(F)(F)F)cn(Cc3ccccc3)c2c1 (stereo not drawn) [Example 184, 2-(1-Benzyl-6-nitro-1H-indol-3-yl)-1,1,1-trifluoro-3-[4-(phenylsulfonyl)piperidin-1-yl]propan-2-ol] | ◯ | X (the results of less than 10% were expressed as X) | –
88 | CS(=O)(=O)C1CCN(CC(O)(c2cn(Cc3ccccc3)c3cc([N+](=O)[O-])ccc23)C(F)(F)F)CC1 (stereo not drawn) [Example 183, 2-(1-Benzyl-6-nitro-1H-indol-3-yl)-1,1,1-trifluoro-3-[4-(methylsulfonyl)piperidin-1-yl]propan-2-ol] | ◯ | ◯ | –
98 | O=[N+]([O-])c1ccc2c(C(O)(Cn3cccn3)C(F)(F)F)cn(Cc3ccccc3)c2c1 (stereo not drawn) [Example 150, 2-(1-Benzyl-6-nitro-1H-indol-3-yl)-1,1,1-trifluoro-3-(1H-pyrazol-1-yl)propan-2-ol] | ◯ | ◯ | –
88 | CCOC(=O)Cc1ccc(OC2CCN(CC(O)(c3cn(Cc4ccccc4)c4cc([N+](=O)[O-])ccc34)C(F)(F)F)CC2)c(OC)c1 (stereo not drawn) [Example 200, Ethyl[4-({1-[2-(1-benzyl-6-nitro-1H-indol-3-yl)-3,3,3-trifluoro-2-hydroxypropyl]-piperidin-4-yl}oxy)-3-methoxyphenyl]acetate] | ◯ | ◯ | –
81 | O=[N+]([O-])c1ccc2c(C(O)(CN3CCC(O)CC3)C(F)(F)F)cn(Cc3ccccc3)c2c1 (stereo not drawn) [Example 78, 1-[2-(1-Benzyl-6-nitro-1H-indol-3-yl)-3,3,3-trifluoro-2-hydroxypropyl]piperidin-4-ol] | ◯ | ◯ | –
92 | O=[N+]([O-])c1ccc2c(C(O)(CN3CCC(Oc4ccc(F)cc4)CC3)C(F)(F)F)cn(Cc3ccccc3)c2c1 (stereo not drawn) [Example 77, 2-(1-Benzyl-6-nitro-1H-indol-3-yl)-1,1,1-trifluoro-3-[4-(4-fluorophenoxy)-piperidin-1-yl]propan-2-ol] | ◯ | ◯ | –
94 | O=C(c1cccs1)C1CCN(CC(O)(c2cn(Cc3ccccc3)c3cc([N+](=O)[O-])ccc23)C(F)(F)F)CC1 (stereo not drawn) [Example 194, {1-[2-(1-Benzyl-6-nitro-1H-indol-3-yl)-3,3,3-trifluoro-2-hydroxypropyl]piperidin-4-yl}(2-thienyl)methanone] | ◯ | ◯ | –
96 | O=[N+]([O-])c1ccc2c(C(O)(Cn3ccnc3)C(F)(F)F)cn(Cc3ccccc3)c2c1 (stereo not drawn) [Example 158, 2-(1-Benzyl-6-nitro-1H-indol-3-yl)-1,1,1-trifluoro-3-(1H-imidazol-1-yl)propan-2-ol] | – | ◯ | < 10
51 | O=[N+]([O-])c1ccc2c(C(O)(CNCCOc3ccccc3)C(F)(F)F)cn(Cc3ccccc3)c2c1 (stereo not drawn) [Example 133, 2-(1-Benzyl-6-nitro-1H-indol-3-yl)-1,1,1-trifluoro-3-[(2-phenoxyethyl)amino]-propan-2-ol] | – | ◯ | < 10
97 | COc1cccc(N2CCN(CC(O)(c3cn(Cc4ccccc4)c4cc([N+](=O)[O-])ccc34)C(F)(F)F)CC2)c1 (stereo not drawn) [Example 144, 2-(1-Benzyl-6-nitro-1H-indol-3-yl)-1,1,1-trifluoro-3-[4-(3-methoxyphenyl)-piperazin-1-yl]propan-2-ol] | ◯ | ◯ | –

From patent publication US20100190768A1, “NOVEL FUSED PYROLE DERIVATIVE” (Dainippon Sumitomo Pharma Co., Ltd., priority 2005, published 2010)
